In ChEMBL document CHEMBL5042530, “Discovery of Novel Pyridine-Dimethyl-Phenyl-DAPY Hybrids by Molecular Fusing of Methyl-Pyrimidine-DAPYs and Difluoro-Pyridinyl-DAPYs: Improving the Druggability toward High Inhibitory Activity, Solubility, Safety, and PK” (J Med Chem, 2022):
Each block holds one compound with its values, some of them ahead of it.

Tests used:
[1] = Half life in Sprague-Dawley rat at 5 mg/kg, IG measured up to 24 hrs by LCMS analysis; type: ADME, organism-based; conditions: in vivo, po
[2] = target: T1, Cytochrome P450 1A2 (Homo sapiens, UniProt P05177); experiment: Inhibition of CYP1A2 in human liver microsomes using phenacetin as substrate incubated for 15 to 45 mins in presence of NADPH; type: ADME
T1 sequence (P05177 whole entry): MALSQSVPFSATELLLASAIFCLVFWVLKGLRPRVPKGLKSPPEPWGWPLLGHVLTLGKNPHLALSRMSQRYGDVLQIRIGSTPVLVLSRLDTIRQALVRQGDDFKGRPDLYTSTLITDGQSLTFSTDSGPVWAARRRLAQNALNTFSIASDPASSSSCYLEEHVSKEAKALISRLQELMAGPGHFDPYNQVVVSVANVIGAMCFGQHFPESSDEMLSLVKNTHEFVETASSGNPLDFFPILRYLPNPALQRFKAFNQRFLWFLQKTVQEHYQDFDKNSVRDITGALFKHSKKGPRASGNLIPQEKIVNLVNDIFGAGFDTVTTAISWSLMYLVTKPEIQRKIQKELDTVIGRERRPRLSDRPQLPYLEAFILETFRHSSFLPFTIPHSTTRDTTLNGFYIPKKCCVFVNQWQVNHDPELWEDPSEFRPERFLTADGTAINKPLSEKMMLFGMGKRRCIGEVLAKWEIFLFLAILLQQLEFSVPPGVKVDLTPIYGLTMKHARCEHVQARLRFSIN

[3] = target: Cytochrome P450 2C9 (Homo sapiens, UniProt P11712); experiment: Inhibition of CYP2C9 in human liver microsomes using tolbutamide as substrate incubated for 15 to 45 mins in presence of NADPH
Sequence of Cytochrome P450 2C9 (P11712 whole entry): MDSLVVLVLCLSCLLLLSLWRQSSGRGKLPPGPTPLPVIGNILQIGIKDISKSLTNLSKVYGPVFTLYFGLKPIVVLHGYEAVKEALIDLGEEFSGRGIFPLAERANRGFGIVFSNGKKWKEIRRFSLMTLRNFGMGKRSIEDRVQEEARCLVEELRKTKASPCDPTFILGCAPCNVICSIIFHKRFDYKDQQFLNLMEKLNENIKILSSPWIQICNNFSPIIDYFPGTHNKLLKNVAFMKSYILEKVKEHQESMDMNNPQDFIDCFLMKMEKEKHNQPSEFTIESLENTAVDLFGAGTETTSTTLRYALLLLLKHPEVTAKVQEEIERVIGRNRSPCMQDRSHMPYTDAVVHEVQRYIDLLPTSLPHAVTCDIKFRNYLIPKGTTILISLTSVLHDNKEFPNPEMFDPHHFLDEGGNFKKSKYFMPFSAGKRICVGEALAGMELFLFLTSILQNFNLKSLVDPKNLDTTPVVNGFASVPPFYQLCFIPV

[4] = target: Cytochrome P450 2C19 (Homo sapiens, UniProt P33261); experiment: Inhibition of CYP2C19 in human liver microsomes using S-mephenytoin as substrate incubated for 15 to 45 mins in presence of NADPH; type: ADME
Sequence of Cytochrome P450 2C19 (P33261 whole entry): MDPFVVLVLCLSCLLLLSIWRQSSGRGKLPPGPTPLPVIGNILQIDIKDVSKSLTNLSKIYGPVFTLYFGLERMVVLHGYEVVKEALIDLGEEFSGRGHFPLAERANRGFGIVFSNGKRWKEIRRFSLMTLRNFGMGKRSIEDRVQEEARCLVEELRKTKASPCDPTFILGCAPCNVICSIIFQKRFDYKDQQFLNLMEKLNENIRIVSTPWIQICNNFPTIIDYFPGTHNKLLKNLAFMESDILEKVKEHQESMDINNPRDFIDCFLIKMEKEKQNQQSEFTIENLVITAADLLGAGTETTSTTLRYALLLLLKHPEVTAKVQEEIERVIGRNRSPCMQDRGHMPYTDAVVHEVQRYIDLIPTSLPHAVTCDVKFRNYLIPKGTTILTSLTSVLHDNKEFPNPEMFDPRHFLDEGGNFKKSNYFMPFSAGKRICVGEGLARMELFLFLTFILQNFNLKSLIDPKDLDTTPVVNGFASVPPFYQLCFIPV

[5] = target: Cytochrome P450 2D6 (Homo sapiens, UniProt P10635); experiment: Inhibition of CYP2D6 in human liver microsomes using dextromethorphan as substrate incubated for 15 to 45 mins in presence of NADPH; type: ADME
Sequence of Cytochrome P450 2D6 (P10635 whole entry): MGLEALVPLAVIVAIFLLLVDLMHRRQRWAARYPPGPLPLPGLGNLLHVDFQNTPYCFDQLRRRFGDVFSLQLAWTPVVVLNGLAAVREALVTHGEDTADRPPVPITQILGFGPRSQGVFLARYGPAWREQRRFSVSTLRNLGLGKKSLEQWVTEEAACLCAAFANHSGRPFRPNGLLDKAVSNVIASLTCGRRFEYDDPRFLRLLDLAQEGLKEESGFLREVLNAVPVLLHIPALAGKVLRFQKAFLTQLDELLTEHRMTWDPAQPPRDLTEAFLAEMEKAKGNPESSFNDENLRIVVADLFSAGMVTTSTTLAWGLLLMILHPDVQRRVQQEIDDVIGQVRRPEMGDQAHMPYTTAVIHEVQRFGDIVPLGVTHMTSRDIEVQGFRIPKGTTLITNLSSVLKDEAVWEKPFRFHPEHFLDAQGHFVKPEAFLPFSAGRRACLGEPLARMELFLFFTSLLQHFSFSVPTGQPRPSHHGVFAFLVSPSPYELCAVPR

[6] = Inhibition of CYP3A4T in human liver microsomes using testosterone as substrate incubated for 15 to 45 mins in presence of NADPH; type: ADME
[7] = Inhibition of CYP3A4M in human liver microsomes using midazolam as substrate incubated for 15 to 45 mins in presence of NADPH; type: ADME
[8] = Half life in Sprague-Dawley rat at 1 mg/kg, iv measured up to 24 hrs by LCMS analysis; type: ADME, organism-based; conditions: in vivo
[9] = Tmax in Sprague-Dawley rat at 5 mg/kg, po administered via gavage measured up to 24 hrs by LCMS analysis; type: ADME, organism-based; conditions: in vivo
[10] = Cmax in Sprague-Dawley rat at 5 mg/kg, po administered via gavage measured up to 24 hrs by LCMS analysis; type: ADME, organism-based; parameters: route oral, dose 5 mg/kg, time <=24; conditions: in vivo
[11] = Oral bioavailability in Sprague-Dawley rat at 5 mg/kg administered via gavage measured up to 24 hrs by LCMS analysis; type: ADME, organism-based; conditions: in vivo
[12] = Metabolic stability in mouse liver microsomes assessed as intrinsic clearance at 1 uM presence of NADPH measured up to 60 mins by LC-MS/MS analysis; type: ADME, Microsome; conditions: read-out: CLH
[13] = Metabolic stability in rat liver microsomes assessed as intrinsic clearance at 1 uM presence of NADPH measured up to 60 mins by LC-MS/MS analysis; type: ADME, Microsome; conditions: read-out: CLH
[14] = Metabolic stability in human liver microsomes assessed as intrinsic clearance at 1 uM presence of NADPH measured up to 60 mins by LC-MS/MS analysis; type: ADME, Microsome; conditions: read-out: CLH
[15] = Metabolic stability in mouse liver microsomes assessed as half life at 1 uM presence of NADPH measured up to 60 mins by LC-MS/MS analysis; type: ADME, Microsome
[16] = Acute toxicity in fasted male mouse assessed as death at 2 g/Kg, IG administered as single dose measured every day for 14 days; conditions: in vivo, po, 2000 mg/kg, 336 h, time 14 day
[17] = Acute toxicity in fasted male mouse assessed as abnormal behavior at 2 g/Kg, IG administered as single dose measured every day for 14 days; conditions: in vivo, po, 2000 mg/kg, 336 h, time 14 day
[18] = Acute toxicity in fasted male mouse assessed as increase in body weight at 2 g/Kg, IG administered as single dose measured every day for 14 days; conditions: in vivo, po, 2000 mg/kg, 336 h, time 14 day
[19] = Acute toxicity in fasted male mouse assessed as pathological changes in brain at 2 g/Kg, IG administered as single dose measured after 14 days by HE staining based assay; type: tissue-based; conditions: in vivo, po, 2000 mg/kg, 336 h, time 14 day
[20] = Acute toxicity in fasted male mouse assessed as pathological changes in heart at 2 g/Kg, IG administered as single dose measured after 14 days by HE staining based assay; type: tissue-based; conditions: in vivo, po, 2000 mg/kg, 336 h, time 14 day
[21] = Acute toxicity in fasted male mouse assessed as pathological changes in liver at 2 g/Kg, IG administered as single dose measured after 14 days by HE staining based assay; type: tissue-based; conditions: in vivo, po, 2000 mg/kg, 336 h, time 14 day
[22] = Acute toxicity in fasted male mouse assessed as pathological changes in spleen at 2 g/Kg, IG administered as single dose measured after 14 days by HE staining based assay; type: tissue-based; conditions: in vivo, po, 2000 mg/kg, 336 h, time 14 day
[23] = Acute toxicity in fasted male mouse assessed as pathological changes in lung at 2 g/Kg, IG administered as single dose measured after 14 days by HE staining based assay; type: tissue-based; conditions: in vivo, po, 2000 mg/kg, 336 h, time 14 day
[24] = Acute toxicity in fasted male mouse assessed as pathological changes in kidney at 2 g/Kg, IG administered as single dose measured after 14 days by HE staining based assay; type: tissue-based; conditions: in vivo, po, 2000 mg/kg, 336 h, time 14 day
[25] = Acute toxicity in fasted female mouse assessed as death at 2 g/Kg, IG administered as single dose measured every day for 14 days; conditions: in vivo, po, 2000 mg/kg, 336 h, time 14 day
[26] = Acute toxicity in fasted female mouse assessed as abnormal behavior at 2 g/Kg, IG administered as single dose measured every day for 14 days; conditions: in vivo, po, 2000 mg/kg, 336 h, time 14 day
[27] = Acute toxicity in fasted female mouse assessed as increase in body weight at 2 g/Kg, IG administered as single dose measured every day for 14 days; conditions: in vivo, po, 2000 mg/kg, 336 h, time 14 day
[28] = Acute toxicity in fasted female mouse assessed as pathological changes in brain at 2 g/Kg, IG administered as single dose measured after 14 days by HE staining based assay; type: tissue-based; conditions: in vivo, po, 2000 mg/kg, 336 h, time 14 day
[29] = Acute toxicity in fasted female mouse assessed as pathological changes in heart at 2 g/Kg, IG administered as single dose measured after 14 days by HE staining based assay; type: tissue-based; conditions: in vivo, po, 2000 mg/kg, 336 h, time 14 day
[30] = Acute toxicity in fasted female mouse assessed as pathological changes in liver at 2 g/Kg, IG administered as single dose measured after 14 days by HE staining based assay; type: tissue-based; conditions: in vivo, po, 2000 mg/kg, 336 h, time 14 day
[31] = Acute toxicity in fasted female mouse assessed as pathological changes in spleen at 2 g/Kg, IG administered as single dose measured after 14 days by HE staining based assay; type: tissue-based; conditions: in vivo, po, 2000 mg/kg, 336 h, time 14 day
[32] = Acute toxicity in fasted female mouse assessed as pathological changes in lung at 2 g/Kg, IG administered as single dose measured after 14 days by HE staining based assay; type: tissue-based; conditions: in vivo, po, 2000 mg/kg, 336 h, time 14 day
[33] = Acute toxicity in fasted female mouse assessed as pathological changes in kidney at 2 g/Kg, IG administered as single dose measured after 14 days by HE staining based assay; type: tissue-based; conditions: in vivo, po, 2000 mg/kg, 336 h, time 14 day
[34] = Metabolic stability in human liver microsomes assessed as half life at 1 uM presence of NADPH measured up to 60 mins by LC-MS/MS analysis; type: ADME, Microsome
[35] = Metabolic stability in rat liver microsomes assessed as half life at 1 uM presence of NADPH measured up to 60 mins by LC-MS/MS analysis; type: ADME, Microsome
[36] = Aqueous solubility of the compound in PBS buffer at pH 2 measured after 24 hrs by HPLC-UV analysis; type: physicochemical
[37] = Aqueous solubility of the compound in PBS buffer at pH 7 measured after 24 hrs by HPLC-UV analysis; type: physicochemical
[38] = Aqueous solubility of the compound in PBS buffer at pH 7.4 measured after 24 hrs by HPLC-UV analysis; type: physicochemical
[39] = AUC (0 to last) in Sprague-Dawley rat at 5 mg/kg, po administered via gavage measured up to 24 hrs by LCMS analysis; type: ADME, organism-based; parameters: route oral, dose 5 mg/kg, time <=24; conditions: in vivo
[40] = AUC (0 to last) in Sprague-Dawley rat at 1 mg/kg, iv measured up to 24 hrs by LCMS analysis; type: ADME, organism-based; parameters: route intravenous, dose 1 mg/kg, time <=24; conditions: in vivo
[41] = AUCinfinity in Sprague-Dawley rat at 5 mg/kg, po administered via gavage measured up to 24 hrs by LCMS analysis; type: ADME, organism-based; parameters: route oral, dose 5 mg/kg, time <=24; conditions: in vivo
[42] = AUCinfinity in Sprague-Dawley rat at 1 mg/kg, iv measured up to 24 hrs by LCMS analysis; type: ADME, organism-based; parameters: route intravenous, dose 1 mg/kg, time <=24; conditions: in vivo
[43] = MRTinfinity in Sprague-Dawley rat at 5 mg/kg, po administered via gavage measured up to 24 hrs by LCMS analysis; type: ADME, organism-based; conditions: in vivo
[44] = MRTinfinity in Sprague-Dawley rat at 1 mg/kg, iv measured up to 24 hrs by LCMS analysis; type: ADME, organism-based; conditions: in vivo
[45] = Half life in Sprague-Dawley rat at 5 mg/kg, po administered via gavage measured up to 24 hrs by LCMS analysis; type: ADME, organism-based; conditions: in vivo

half-life [1]: 50.4 min
SMILES: N#Cc1ccc(Nc2nccc(Nc3c(F)cc(-c4ccncc4)cc3F)n2)cc1

SMILES: Br.Cc1cnc(Nc2ccc(C#N)cc2)nc1Nc1c(F)cc(-c2ccncc2)cc1F
IC50 [2]: 4.1 µM
IC50 [3]: 4.5 µM
IC50 [4]: 2.2 µM
IC50 [5]: 7.6 µM
IC50 [6]: 19 µM
IC50 [7]: 29 µM
half-life [8]: 48.6 min
Tmax [9]: 15 min
Cmax [10]: 2.14 ng/mL
bioavailability [11]: 0.9%
microsomal CLint at 1 µM [12]: 24.9 µL/min/mg
microsomal CLint at 1 µM [13]: 31.8 µL/min/mg
microsomal CLint at 1 µM [14]: 14.6 µL/min/mg
half-life at 1 µM [15]: 56 min
Activity [16]: Non-Toxic
Activity [17]: Non-Toxic
Activity [18]: Toxic
Activity [19]: Non-Toxic
Activity [20]: Non-Toxic
Activity [21]: Non-Toxic
Activity [22]: Non-Toxic
Activity [23]: Non-Toxic
Activity [24]: Non-Toxic
Activity [25]: Non-Toxic
Activity [26]: Non-Toxic
Activity [27]: Toxic
Activity [28]: Non-Toxic
Activity [29]: Non-Toxic
Activity [30]: Non-Toxic
Activity [31]: Non-Toxic
Activity [32]: Non-Toxic
Activity [33]: Non-Toxic
half-life at 1 µM [34]: 95 min
half-life at 1 µM [35]: 44 min

SMILES: Cc1cc(-c2ccncc2)cc(C)c1Nc1ccnc(Nc2ccc(C#N)cc2)n1.Cl
solubility at 24 h [36]: 584 µg/mL
solubility at 24 h [37]: 9.1 µg/mL
solubility at 24 h [38]: 9 µg/mL
IC50 [2]: > 30 µM
IC50 [3]: 17 µM
IC50 [4]: 6.8 µM
IC50 [5]: > 30 µM
IC50 [6]: 20 µM
IC50 [7]: 21 µM
AUC(0-t) at 24 h [39]: 835 ng·h/mL
AUC(0-t) at 24 h [40]: 285 ng·h/mL
AUC(0-inf) [41]: 861 ng·h/mL
AUC(0-inf) [42]: 290 ng·h/mL
MRT inf [43]: 126 min
MRT inf [44]: 28.8 min
half-life [45]: 132 min
half-life [8]: 21.6 min
Tmax [9]: 60 min
Cmax [10]: 365 ng/mL
bioavailability [11]: 59.4%
Activity [16]: Non-Toxic
Activity [17]: Non-Toxic
Activity [18]: Toxic
Activity [19]: Non-Toxic
Activity [20]: Non-Toxic
Activity [21]: Non-Toxic
Activity [22]: Non-Toxic
Activity [23]: Non-Toxic
Activity [24]: Non-Toxic
Activity [25]: Non-Toxic
Activity [26]: Non-Toxic
Activity [27]: Toxic
Activity [28]: Non-Toxic
Activity [29]: Non-Toxic
Activity [30]: Non-Toxic
Activity [31]: Non-Toxic
Activity [32]: Non-Toxic
Activity [33]: Non-Toxic
